SMILES strings stand for the structures. A value given as a limit tells only on which side of the number the result lay.

Results on 3 compounds are retold here after patent US12037350B2, “Compositions and methods for the prevention and/or treatment of mitochondrial disease, including Friedreich's ataxia” (Stealth BioTherapeutics Inc., priority 2020, dated 2024).

In the assay the test system is frataxin deficient fibroblasts (GM03665) from Friedreich's ataxia patient. Nature of the assay: Frataxin Deficient Fibroblast Viability Assay (BSO Assay). It counts as cell-based. The note with it: for protection against BSO induced cell death (in words): BSO Assay, text statement; for EC50: Homo sapiens, Fibroblast, FA patient fibroblasts pretreated with compound, BSO 10 mM, MTT after 48 hrs. As for the experimental part: Example 12: Frataxin Deficient Fibroblast Viability Assay (the “BSO Assay”)
This Example was used to evaluate the various new compositions for their potential efficacy in the treatment of Friedreich's Ataxia (FA or FRDA)—substantially as described in the above cited Reference (Matthias et al.).
The stock solutions of the test articles (and control compounds) were prepared in dimethyl sulfoxide (DMSO at 10 mM), Working stock solutions (2 times concentrated) were prepared on the day of the experiment in respective cell culture medium to be used for assay (detailed medium description below). A listing of compounds used as test articles in this Example 12 are found in Table 1, below.
A patient derived frataxin deficient fibroblast cell line was obtained from Coriell Institute. More specifically, the following cell lines/DNA samples were obtained from the NIGMS Human Genetic Cell Repository at the Coriell Institute for Medical Research: GM03665. To evaluate importance of various growth conditions on cell susceptibility to BSO toxicity cells were grown on:
MEM (Sigma-Aldrich) 15% Fetal Bovine Serum (FBS) without growth factors;
MEM (Sigma-Aldrich) 15% FBS with growth factors (Catalogue number 100-18B, Recombinant Human FGF-basic (154 a.a.) and catalogue number AF-100-15, Animal-Free Recombinant Human EGF from Peprotech);
MEM199/MEM EBS (Bioconcept Ltd.) 10% FBS, insulin 10 μg/ml, L-glutamine 2 mM with growth factors (Catalogue number 100-18B, Recombinant Human FGF-basic (154 a.a.) and catalogue number AF-100-15, Animal-Free Recombinant Human EGF from Peprotech).
To conduct an experiment, fibroblast cells (from all growth conditions) were seeded (100 μL (cells 3×10^3/well) on 96-well plates in MEM199/MEM EBS medium 10% FBS, insulin 10 μg/mL, L-glutamine 2 mM with growth factors and allowed to grow on plate for 24 hrs. After 24 hrs., media was removed and then test compounds of interest were added (100 μL, 2 times concentrated stock) to 96-well plates (end DM80 concentration not exceeding 0.5%) and incubated for 24 hours. Then L-buthionine-sulfoximine (BSO, from Acros Organics, Cat. No. 235520010) was added (100 μL, 2 times concentrated stock) at end concentrations ranging from 1 to 10 mM. Both test compounds and BSO were dissolved in MEM199/MEM EBS medium 10% FBS, insulin 10 μg/mL, L-glutamine 2 mM with growth factors. Cell viability was monitored and either after 24- or 48-hours cell viability was assayed by MTT (Thiazolyl blue tetrazolium bromide) assay. For the MTT assay, media was removed and 100 μL of MTT 1 mg/mL was added, incubated for 2 hours at +37° C., then medium was removed and 100 μL of isopropanol added to dissolve sediment. Absorption was measured at 570 (OD570) and 650 (QD650) nm wavelengths. Control cells (vehicle instead of BSO and compound) and vehicle control (with BSO, but vehicle instead of test compound) were treated in the same manner as ceils with BSO and compound. All cell media contained penicillin and streptomycin 100 U/mL each.
Absorption readouts were processed as follows: ValueΔ=ValueOD570−ValueOD650 and the obtained values were used to calculate cell viability as % of control cell (i.e., no BSO, no compound, just vehicle) viability.
Except as otherwise indicated in Table 1, all samples were run in at least 3 replicates for test compounds and at least 8 replicates for controls (i.e., both control (no BSO, no compound) and vehicle control (i.e., with BSO, no compound). Exact N per data points are indicated in the figures/table legends. Results for the compounds (test articles and controls) tested are listed in Table 1, below.
This is a cell-based assay measuring cytotoxicity which results from oxidative stress subsequent to depletion of endogenous glutathione defense mechanisms. The cells were primary Friedreich Ataxia (FA) patient fibroblasts which were incubated for 48 hrs. in BSO, an inhibitor of gamma glutamyl synthetase, an enzyme required for glutathione production. […]

As to `COC1=C(OC)C(=O)C(CCCCCCCCCC(F)(F)F)=C(C)C1=O` [Compound C, 2,3-dimethoxy-5-methyl-6-(10,10,10-trifluorodecyl)cyclohexa-2,5-diene-1,4-dione], the “protection against BSO induced cell death (in words)” value (“protection” for short) is reported as “best of the test compounds” and the EC50 worked out at 128 nM.

As to `COC1=C(OC)C(=O)C(CCCCF)=C(C)C1=O` [Compound J, 2-(4-fluorobutyl)-5,6-dimethoxy-3-methylcyclohexa-2,5-diene-1,4-dione], the “protection” value is “not that effective” and the 50% effective concentration (EC50) was above 1000 nM.

In the case of `CC1(C)CC[C@]2(NC(=O)C(C)(F)F)CC[C@]3(C)[C@H](C(=O)C=C4[C@@]5(C)C=C(C#N)C(=O)C(C)(C)[C@@H]5CC[C@]43C)[C@@H]2C1` [Omaveloxolone, reference compound], the “protection” value is “roughly equivalent in protection as compared with Vatiquinone” and the EC50 turned out to be 149 nM. Besides, the “protection” value (listed as omaveloxolone) is on record as “displayed anti-ferroptotic activity”.
